Source: PubChem BioAssay (NCI)
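Growth conditions: 96-well plates. Treatment: test compound, 48 hours, 5 concentrations. Analysis: linear interpolation between bracketing concentrations; unreached endpoints set to highest concentration. GI50 = concentration required for 50% inhibition of growth. At the TGI there is no net growth.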

Tests used:
Experiment in all cases: growth of human tumour cells (NCI), 48 h
[1] = system: HS 578T breast
[2] = system: LOX IMVI melanoma
[3] = system: HCC-2998 colon
[4] = system: NCI-H522 lung
[5] = system: ACHN renal
[6] = system: CCRF-CEM leukemia
[7] = system: HL-60(TB) leukemia
[8] = system: NCI-H226 lung
[9] = system: U251 CNS
[10] = system: BT-549 breast
[11] = system: MALME-3M melanoma
[12] = system: MDA-MB-435
[13] = system: SN12C renal
[14] = system: OVCAR-8 ovarian
[15] = system: 786-0 renal
[16] = system: KM12 colon
[17] = system: T-47D breast
[18] = system: UO-31 renal
[19] = system: HOP-92 NSCLC
[20] = system: SW-620 colon
[21] = system: SNB-75 CNS
[22] = system: SR leukemia
[23] = system: SK-MEL-2 melanoma
[24] = system: A498 renal
[25] = system: MDA-MB-231 breast
[26] = system: SK-OV-3 ovarian
[27] = system: SNB-19 CNS
[28] = system: UACC-62 melanoma
[29] = system: DU-145 prostate
[30] = system: TK-10 renal
[31] = system: HT29 colon
[32] = system: EKVX NSCLC
[33] = system: OVCAR-4 ovarian
[34] = system: SF-268 CNS
[35] = system: OVCAR-5 ovarian
[36] = system: COLO 205 colon
[37] = system: NCI-H460 lung
[38] = system: M14 melanoma
[39] = system: NCI/ADR-RES ovarian
[40] = system: SK-MEL-28 melanoma
[41] = system: OVCAR-3 ovarian
[42] = system: HOP-62 NSCLC
[43] = system: NCI-H23 lung
[44] = system: SF-539 CNS
[45] = system: SF-295 CNS
[46] = system: SK-MEL-5 melanoma
[47] = system: MOLT-4 leukemia
[48] = system: IGROV1 ovarian
[49] = system: A549 NSCLC
[50] = system: K-562 leukemia
[51] = system: PC-3 prostate
[52] = system: RXF 393 renal
[53] = system: UACC-257 melanoma
[54] = system: RPMI-8226 leukemia
[55] = system: HCT-15 colon

COc1ccc2nc(-c3ccc(Cl)cc3)cc(-c3nnc(SCC(=O)Nc4ccc(/C(C)=N\O)cc4)o3)c2c1
GI50 [1]: 2770 nM | TGI [1]: 17900 nM | GI50 [2]: 1760 nM | TGI [2]: 6920 nM | GI50 [3]: 2980 nM | TGI [3]: 31500 nM | GI50 [4]: 1200 nM | TGI [4]: 3830 nM | GI50 [5]: 1850 nM | TGI [5]: 8040 nM | GI50 [6]: 2490 nM | TGI [6]: > 50000 nM | GI50 [7]: > 50000 nM | TGI [7]: > 50000 nM | GI50 [8]: 3860 nM | TGI [8]: 14400 nM | GI50 [9]: 974 nM | TGI [9]: 1900 nM | GI50 [10]: 3700 nM | TGI [10]: 18900 nM | GI50 [11]: 1280 nM | TGI [11]: 3970 nM | GI50 [12]: 1260 nM | TGI [12]: 4080 nM | GI50 [13]: 1800 nM | TGI [13]: 7290 nM | GI50 [14]: 1150 nM | TGI [14]: 2780 nM | GI50 [15]: 1020 nM | TGI [15]: 3040 nM | GI50 [16]: 1530 nM | TGI [16]: 5460 nM | GI50 [17]: 981 nM | TGI [17]: 3970 nM | GI50 [18]: 3260 nM | TGI [18]: 20500 nM | GI50 [19]: 1770 nM | TGI [19]: 5260 nM | GI50 [20]: 1150 nM | TGI [20]: 2540 nM | GI50 [21]: 1080 nM | TGI [21]: 6340 nM | GI50 [22]: 1720 nM | TGI [22]: > 50000 nM | GI50 [23]: 2460 nM | TGI [23]: 9770 nM | GI50 [24]: 2940 nM | TGI [24]: 11000 nM | GI50 [25]: 2050 nM | TGI [25]: 8340 nM | GI50 [26]: 6230 nM | TGI [26]: 18700 nM | GI50 [27]: 1180 nM | TGI [27]: 3090 nM | GI50 [28]: 2890 nM | TGI [28]: 9930 nM | GI50 [29]: 1520 nM | TGI [29]: 5530 nM | GI50 [30]: 1610 nM | TGI [30]: 8050 nM | GI50 [31]: 1400 nM | TGI [31]: 5540 nM | GI50 [32]: 3010 nM | TGI [32]: 15300 nM | GI50 [33]: 904 nM | TGI [33]: 1840 nM | GI50 [34]: 1440 nM | TGI [34]: 5060 nM | GI50 [35]: 2060 nM | TGI [35]: 10200 nM | GI50 [36]: 1150 nM | TGI [36]: 3530 nM | GI50 [37]: 1100 nM | TGI [37]: 2320 nM | GI50 [38]: 1810 nM | TGI [38]: 7580 nM | GI50 [39]: 1290 nM | TGI [39]: 3750 nM | GI50 [40]: 1810 nM | TGI [40]: 7630 nM | GI50 [41]: 1580 nM | TGI [41]: 5470 nM | GI50 [42]: 1630 nM | TGI [42]: 7000 nM | GI50 [43]: 1380 nM | TGI [43]: 4300 nM | GI50 [44]: 3000 nM | TGI [44]: 10700 nM | GI50 [45]: 1090 nM | TGI [45]: 3080 nM | GI50 [46]: 1710 nM | TGI [46]: 7520 nM | GI50 [47]: 2180 nM | TGI [47]: > 50000 nM | GI50 [48]: 3930 nM | TGI [48]: 20600 nM | GI50 [49]: 1230 nM | TGI [49]: 3210 nM | GI50 [50]: 2830 nM | TGI [50]: > 50000 nM | GI50 [51]: 1290 nM | TGI [51]: 2970 nM | GI50 [52]: 1510 nM | TGI [52]: 5970 nM | GI50 [53]: 2160 nM | TGI [53]: 9510 nM | GI50 [54]: 2180 nM | TGI [54]: > 50000 nM | GI50 [55]: 1880 nM | TGI [55]: 16400 nM
